Literature values, collected in PMC3266668 (Frontiers in Pharmacology, 2012).

Assays:
[1] = tested on: patients after myocardial infarction; conditions: ref Echt et al., [1991]
isolated rabbit hearts = conditions: ref Lu et al., [2010]
[2] = tested on: isolated left ventricular wedge preparations; conditions: ref Lu et al., [2010]

Row | Compound | mortality in CAST treatment arms [1] | QRS interval effect (isolated rabbit hearts) | ventricular tachycardia (isolated rabbit hearts) | QRS interval effect [2] | ventricular tachycardia [2]
1 | COc1ccc(C(=O)Nc2ccccc2CCC2CCCCN2C)cc1 (stereo not drawn) [encainide] | increased mortality due to arrhythmias |  |  |  | 
2 | O=C(NCC1CCCCN1)c1cc(OCC(F)(F)F)ccc1OCC(F)(F)F (stereo not drawn) [flecainide] | increased mortality due to arrhythmias |  |  |  | 
3 | CCN(CC)CC(=O)Nc1c(C)cccc1C [lidocaine] |  | small increase in QRS duration | did not induce ventricular tachycardia | only slightly increased QRS duration | without inducing ventricular tachycardia
